Molecular target: CDK activating kinase (CAK) from Candida albicans (Candida albicans, UniProt A0A1D8PH53)
Test: Candida albicans CAK kinase assay: phosphorylation of human CDK2 with 33P labeled ATP
Format: biochemical
Conditions: 2 nM CAK, 0.3 μM CDK2·FSBA, 10 μM ATP, room temperature, pH 7.5
Method: Activity of CDK activating kinase (CAK) from Candida albicans was measured by following the phosphorylation of human cyclin dependent kinase 2 (CDK 2) with ^33P labeled ATP. Reactions were carried out at room temperature in 100 mM HEPES, pH 7.5, 1 mM MgCl2, 100 mM NaCl and 1 mM DTT. Final concentrations of CAK and CDK2 were 2 nM and 300 nM, respectively. The CDK-2 substrate was inactivated with 5′ fluorosulfonylbenzoyladenosine (FSBA) to oblate its intrinsic ATPase activity. Test compounds in DMSO (final concentrations 30 μM, 1.5% DMSO) were first incubated with CAK and CDK2 for 40 minutes, then the reaction initiated by addition of ^33P ATP (final concentration 10 μM, specific activity=[…], NEN, Boston, Mass.). The reaction was allowed to proceed for 40 minutes and quenched by addition of 10% TCA containing 250 mM ATP. The quenched reaction was harvested onto GF/C glass fiber filter plates (Packard, Meriden, Conn.) using a Tomtec 9600 cell harvester (Tomtec, Hamden, Conn.), washed with 5% TCA and water. The plates were then treated with 50 μl of scintillation fluid and counted using a Packard top count (Packard, Meriden, Conn.). Ki values for inhibitory compounds were determined using the same assay at a series of compound concentrations.
• 100 mM HEPES, pH 7.5 • 1 mM MgCl2 • 100 mM NaCl • 1 mM DTT • 2 nM CAK • 0.3 μM CDK2·FSBA • 1.5% DMSO (compounds are dissolved in DMSO) • 10 μM ATP (specific activity·1.25e9 μCi/mol ATP)

Sequence of CDK activating kinase (CAK) from Candida albicans (A0A1D8PH53 entry or part of it): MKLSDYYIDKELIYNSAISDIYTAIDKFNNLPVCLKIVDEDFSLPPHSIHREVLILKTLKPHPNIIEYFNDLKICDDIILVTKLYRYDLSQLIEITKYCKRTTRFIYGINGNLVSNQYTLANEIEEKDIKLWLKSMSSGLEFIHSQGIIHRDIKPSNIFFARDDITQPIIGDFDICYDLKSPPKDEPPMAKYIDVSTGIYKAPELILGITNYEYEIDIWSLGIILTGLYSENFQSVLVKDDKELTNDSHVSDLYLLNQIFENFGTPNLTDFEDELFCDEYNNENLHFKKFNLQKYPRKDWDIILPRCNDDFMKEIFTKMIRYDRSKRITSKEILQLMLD

Ki	SMILES
1.3 µM	N#Cc1c(N)c(C(=O)c2ccc(Cl)cc2)n2ccccc12 [Compound 9]
1.5 µM	N#Cc1c(N)c(C(=O)c2ccc(OC(F)(F)F)cc2)n2ccccc12 [Compound 10]
1.9 µM	N#Cc1c(N)c(C(=O)c2ccc(Br)cc2)n2ccccc12 [Compound 11]
2.4 µM	COc1ccc(C(=O)c2c(N)c(C#N)c3ccccn23)cc1 [Compound 12]
> 30 µM	CC(=O)Nc1c(C#N)c2ccccn2c1C(=O)c1ccc(F)cc1 [Compound 13]

Second part, the molecule before the results:

SMILES	Ki
N#Cc1c(N)c(C(=O)c2cccc(I)c2)n2ccccc12 [Compound 1]	0.06 µM
COc1cccc(C(=O)c2c(N)c(C#N)c3ccccn23)c1 [Compound 2]	0.21 µM
N#Cc1c(N)c(C(=O)c2cccc(Cl)c2)n2ccccc12 [Compound 3]	0.29 µM
N#Cc1c(N)c(C(=O)c2ccc3ccccc3c2)n2ccccc12 [Compound 4]	0.54 µM
N#Cc1c(N)c(C(=O)c2ccc(Cl)c(Cl)c2)n2ccccc12 [Compound 5]	0.64 µM
N#Cc1c(N)c(C(=O)c2ccc(F)cc2)n2ccccc12 [Compound 6]	0.88 µM
COc1ccccc1C(=O)c1c(N)c(C#N)c2ccccn12 [Compound 7]	0.94 µM
N#Cc1c(N)c(C(=O)c2ccc(F)c(F)c2)n2ccccc12 [Compound 8]	1 µM
